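Dose response: 5 concentrations. Exposure: 48 h. Format: 96-well plates. Endpoint: linear interpolation; highest concentration if not reached. Abbreviation: GI50, concentration required for 50% inhibition of growth. TGI marks complete inhibition of growth.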
Key:
Experiment in all cases: inhibition of tumour cell growth, NCI panel, 48 h
CCRF-CEM leukemia = system: CCRF-CEM leukemia
OVCAR-8 ovarian = system: OVCAR-8 ovarian
A498 renal = system: A498 renal
SF-295 CNS = system: SF-295 CNS
HCC-2998 colon = system: HCC-2998 colon
OVCAR-3 ovarian = system: OVCAR-3 ovarian
TK-10 renal = system: TK-10 renal
MALME-3M melanoma = system: MALME-3M melanoma
MCF7 breast = system: MCF7 breast
OVCAR-4 ovarian = system: OVCAR-4 ovarian
HOP-92 NSCLC = system: HOP-92 NSCLC
DU-145 prostate = system: DU-145 prostate
COLO 205 colon = system: COLO 205 colon
SW-620 colon = system: SW-620 colon
SR leukemia = system: SR leukemia
BT-549 breast = system: BT-549 breast
SK-OV-3 ovarian = system: SK-OV-3 ovarian
RPMI-8226 leukemia = system: RPMI-8226 leukemia
NCI-H23 lung = system: NCI-H23 lung
HT29 colon = system: HT29 colon
HS 578T breast = system: HS 578T breast
IGROV1 ovarian = system: IGROV1 ovarian
SF-268 CNS = system: SF-268 CNS
M14 melanoma = system: M14 melanoma
SK-MEL-28 melanoma = system: SK-MEL-28 melanoma
SK-MEL-2 melanoma = system: SK-MEL-2 melanoma
ACHN renal = system: ACHN renal
HL-60(TB) leukemia = system: HL-60(TB) leukemia
SF-539 CNS = system: SF-539 CNS
786-0 renal = system: 786-0 renal
CAKI-1 renal = system: CAKI-1 renal
U251 CNS = system: U251 CNS
T-47D breast = system: T-47D breast
NCI-H522 lung = system: NCI-H522 lung
HCT-116 colon = system: HCT-116 colon
SK-MEL-5 melanoma = system: SK-MEL-5 melanoma
MDA-MB-435 = system: MDA-MB-435
SN12C renal = system: SN12C renal
EKVX NSCLC = system: EKVX NSCLC
KM12 colon = system: KM12 colon
PC-3 prostate = system: PC-3 prostate
HCT-15 colon = system: HCT-15 colon
UACC-257 melanoma = system: UACC-257 melanoma
RXF 393 renal = system: RXF 393 renal
UACC-62 melanoma = system: UACC-62 melanoma
MDA-MB-231 breast = system: MDA-MB-231 breast
HOP-62 NSCLC = system: HOP-62 NSCLC
NCI/ADR-RES ovarian = system: NCI/ADR-RES ovarian
LOX IMVI melanoma = system: LOX IMVI melanoma
SNB-19 CNS = system: SNB-19 CNS
NCI-H460 lung = system: NCI-H460 lung
UO-31 renal = system: UO-31 renal
A549 NSCLC = system: A549 NSCLC
MOLT-4 leukemia = system: MOLT-4 leukemia
OVCAR-5 ovarian = system: OVCAR-5 ovarian
K-562 leukemia = system: K-562 leukemia
NCI-H226 lung = system: NCI-H226 lung
SNB-75 CNS = system: SNB-75 CNS

Q: Which GI50 (CCRF-CEM leukemia) does the source give for `CC(C)Oc1ccc(-c2nn([C@@H](C)c3oc4ccc(F)cc4c(=O)c3-c3cccc(F)c3)c3ncnc(N)c23)cc1F` here?
A: 6.17 µM

Q: What about the TGI (CCRF-CEM leukemia) of the same compound?
A: > 100 µM

Q: And the GI50 (OVCAR-8 ovarian)?
A: 11.8 µM

Q: And the TGI (OVCAR-8 ovarian)?
A: > 100 µM

Q: And the GI50 (A498 renal)?
A: 76.1 µM

Q: What about the TGI (A498 renal) of the same compound?
A: > 100 µM

Q: And the GI50 (SF-295 CNS)?
A: > 100 µM

Q: And the TGI (SF-295 CNS)?
A: > 100 µM

Q: And the GI50 (HCC-2998 colon)?
A: > 100 µM

Q: And the TGI (HCC-2998 colon)?
A: > 100 µM

Q: And the GI50 (OVCAR-3 ovarian)?
A: 30.2 µM

Q: And the TGI (OVCAR-3 ovarian)?
A: > 100 µM

Q: And the GI50 (TK-10 renal)?
A: 7.29 µM

Q: And the TGI (TK-10 renal)?
A: > 100 µM

Q: And the GI50 (MALME-3M melanoma)?
A: > 100 µM

Q: And the TGI (MALME-3M melanoma)?
A: > 100 µM

Q: What about the GI50 (MCF7 breast) of the same compound?
A: 6.79 µM

Q: What about the TGI (MCF7 breast) of the same compound?
A: > 100 µM

Q: What about the GI50 (OVCAR-4 ovarian) of the same compound?
A: > 100 µM

Q: And the TGI (OVCAR-4 ovarian)?
A: > 100 µM

Q: And the GI50 (HOP-92 NSCLC)?
A: 4.71 µM

Q: And the TGI (HOP-92 NSCLC)?
A: > 100 µM

Q: And the GI50 (DU-145 prostate)?
A: > 100 µM

Q: And the TGI (DU-145 prostate)?
A: > 100 µM

Q: What about the GI50 (COLO 205 colon) of the same compound?
A: 67.3 µM

Q: What about the TGI (COLO 205 colon) of the same compound?
A: > 100 µM

Q: And the GI50 (SW-620 colon)?
A: > 100 µM

Q: And the TGI (SW-620 colon)?
A: > 100 µM

Q: And the GI50 (SR leukemia)?
A: 4.93 µM

Q: What about the TGI (SR leukemia) of the same compound?
A: > 100 µM

Q: What about the GI50 (BT-549 breast) of the same compound?
A: 6.99 µM

Q: And the TGI (BT-549 breast)?
A: > 100 µM

Q: What about the GI50 (SK-OV-3 ovarian) of the same compound?
A: > 100 µM

Q: And the TGI (SK-OV-3 ovarian)?
A: > 100 µM

Q: What about the GI50 (RPMI-8226 leukemia) of the same compound?
A: 6.7 µM

Q: And the TGI (RPMI-8226 leukemia)?
A: > 100 µM

Q: And the GI50 (NCI-H23 lung)?
A: 60.9 µM

Q: What about the TGI (NCI-H23 lung) of the same compound?
A: > 100 µM

Q: And the GI50 (HT29 colon)?
A: 21.8 µM

Q: What about the TGI (HT29 colon) of the same compound?
A: > 100 µM

Q: What about the GI50 (HS 578T breast) of the same compound?
A: 47.5 µM

Q: And the TGI (HS 578T breast)?
A: > 100 µM

Q: What about the GI50 (IGROV1 ovarian) of the same compound?
A: > 100 µM

Q: And the TGI (IGROV1 ovarian)?
A: > 100 µM

Q: What about the GI50 (SF-268 CNS) of the same compound?
A: 19.1 µM

Q: What about the TGI (SF-268 CNS) of the same compound?
A: > 100 µM

Q: What about the GI50 (M14 melanoma) of the same compound?
A: > 100 µM

Q: What about the TGI (M14 melanoma) of the same compound?
A: > 100 µM

Q: What about the GI50 (SK-MEL-28 melanoma) of the same compound?
A: > 100 µM

Q: And the TGI (SK-MEL-28 melanoma)?
A: > 100 µM

Q: What about the GI50 (SK-MEL-2 melanoma) of the same compound?
A: > 100 µM

Q: And the TGI (SK-MEL-2 melanoma)?
A: > 100 µM

Q: And the GI50 (ACHN renal)?
A: 50.1 µM

Q: What about the TGI (ACHN renal) of the same compound?
A: > 100 µM

Q: What about the GI50 (HL-60(TB) leukemia) of the same compound?
A: 30.4 µM

Q: And the TGI (HL-60(TB) leukemia)?
A: > 100 µM

Q: What about the GI50 (SF-539 CNS) of the same compound?
A: 15.2 µM

Q: What about the TGI (SF-539 CNS) of the same compound?
A: > 100 µM

Q: What about the GI50 (786-0 renal) of the same compound?
A: 12.8 µM

Q: What about the TGI (786-0 renal) of the same compound?
A: > 100 µM

Q: And the GI50 (CAKI-1 renal)?
A: 5.6 µM

Q: And the TGI (CAKI-1 renal)?
A: > 100 µM

Q: What about the GI50 (U251 CNS) of the same compound?
A: 23.9 µM

Q: And the TGI (U251 CNS)?
A: > 100 µM

Q: What about the GI50 (T-47D breast) of the same compound?
A: 5.42 µM

Q: What about the TGI (T-47D breast) of the same compound?
A: > 100 µM

Q: And the GI50 (NCI-H522 lung)?
A: > 100 µM

Q: And the TGI (NCI-H522 lung)?
A: > 100 µM

Q: And the GI50 (HCT-116 colon)?
A: 8.96 µM

Q: And the TGI (HCT-116 colon)?
A: > 100 µM

Q: What about the GI50 (SK-MEL-5 melanoma) of the same compound?
A: 48.9 µM

Q: What about the TGI (SK-MEL-5 melanoma) of the same compound?
A: > 100 µM

Q: And the GI50 (MDA-MB-435)?
A: > 100 µM

Q: And the TGI (MDA-MB-435)?
A: > 100 µM

Q: And the GI50 (SN12C renal)?
A: 9.89 µM

Q: And the TGI (SN12C renal)?
A: > 100 µM

Q: And the GI50 (EKVX NSCLC)?
A: 8.61 µM

Q: What about the TGI (EKVX NSCLC) of the same compound?
A: > 100 µM

Q: What about the GI50 (KM12 colon) of the same compound?
A: 25.8 µM

Q: And the TGI (KM12 colon)?
A: > 100 µM

Q: What about the GI50 (PC-3 prostate) of the same compound?
A: 4.68 µM

Q: What about the TGI (PC-3 prostate) of the same compound?
A: > 100 µM

Q: And the GI50 (HCT-15 colon)?
A: 9.33 µM

Q: What about the TGI (HCT-15 colon) of the same compound?
A: > 100 µM

Q: And the GI50 (UACC-257 melanoma)?
A: > 100 µM

Q: What about the TGI (UACC-257 melanoma) of the same compound?
A: > 100 µM

Q: What about the GI50 (RXF 393 renal) of the same compound?
A: 4.36 µM

Q: What about the TGI (RXF 393 renal) of the same compound?
A: > 100 µM

Q: And the GI50 (UACC-62 melanoma)?
A: > 100 µM

Q: And the TGI (UACC-62 melanoma)?
A: > 100 µM

Q: And the GI50 (MDA-MB-231 breast)?
A: 22.9 µM

Q: What about the TGI (MDA-MB-231 breast) of the same compound?
A: > 100 µM

Q: What about the GI50 (HOP-62 NSCLC) of the same compound?
A: > 100 µM

Q: And the TGI (HOP-62 NSCLC)?
A: > 100 µM

Q: And the GI50 (NCI/ADR-RES ovarian)?
A: 20.7 µM

Q: And the TGI (NCI/ADR-RES ovarian)?
A: > 100 µM

Q: And the GI50 (LOX IMVI melanoma)?
A: > 100 µM

Q: And the TGI (LOX IMVI melanoma)?
A: > 100 µM

Q: And the GI50 (SNB-19 CNS)?
A: 32.5 µM

Q: And the TGI (SNB-19 CNS)?
A: > 100 µM

Q: What about the GI50 (NCI-H460 lung) of the same compound?
A: 17.6 µM

Q: What about the TGI (NCI-H460 lung) of the same compound?
A: > 100 µM

Q: What about the GI50 (UO-31 renal) of the same compound?
A: 3.81 µM

Q: And the TGI (UO-31 renal)?
A: > 100 µM

Q: And the GI50 (A549 NSCLC)?
A: 7.7 µM

Q: What about the TGI (A549 NSCLC) of the same compound?
A: > 100 µM

Q: What about the GI50 (MOLT-4 leukemia) of the same compound?
A: 9.28 µM

Q: And the TGI (MOLT-4 leukemia)?
A: > 100 µM

Q: And the GI50 (OVCAR-5 ovarian)?
A: > 100 µM

Q: What about the TGI (OVCAR-5 ovarian) of the same compound?
A: > 100 µM

Q: And the GI50 (K-562 leukemia)?
A: 5.68 µM

Q: What about the TGI (K-562 leukemia) of the same compound?
A: > 100 µM

Q: What about the GI50 (NCI-H226 lung) of the same compound?
A: 26.9 µM

Q: And the TGI (NCI-H226 lung)?
A: > 100 µM

Q: What about the GI50 (SNB-75 CNS) of the same compound?
A: > 100 µM

Q: And the TGI (SNB-75 CNS)?
A: > 100 µM

Source: PubChem BioAssay (NCI)
